According to patent US11723894B2, “Combination product for the treatment of neurological and/or psychiatric disorders” (Consejo Superior de Investigaciones Cientificas (CSIC), priority 2017, dated 2023):

Experiments:
[1] = system: dopaminergic neurons of the Substantia nigra pars compacta; test: 6-OHDA in vivo model of Parkinson's Disease (injection into Substantia nigra pars compacta); parameters: species or system C57BL/6 mice; conditions: 0.1 μg DMT co-injected with 5 μg 6-OHDA into SNpc, 3 weeks
Protocol: Example 10: DMT administration prevents dopaminergic cell death in a in vivo model of Parkinson's disease. Adult male C57BL/6 mice (8-12 weeks old) were used in this study. Animals were properly anaesthetized and placed in a stereotaxic apparatus (Kopf Instruments, CA). 6-OHDA (5 μg in […] PBS) was injected into the right side of the Substantia nigra pars compacta (SNpc) (coordinates from Bregma: posterior −3.2 mm; lateral +2.0 mm; ventral: +4.7 mm, according to the atlas of Paxinos and Franklin, The Mouse Brain in Stereotaxic Coordinates. 4. San Diego: Academic Press; 2012). Control animals of the same age were injected with PBS. A third group received an injection with 6-OHDA (5 μg) combined with DMT (0.1 μg) in […] PBS. Mice were then housed individually to recover and sacrificed 3 weeks later. At this point animals were anaesthetized and perfused transcardially with a 4% paraformaldehyde solution. The brains were removed, postfixed in the same solution at 4° C. overnight, cryoprotected in 20% sucrose, frozen, and 30 μm coronal sections were obtained in a cryostat. Free-floating sections were processed for double fluorescent immunohistochemistry. […] Neuronal integrity and specifically dopaminergic cell death was assessed by counting the percentage of TH^+ cells in the SNpc following a stereological approach. […] Images were analyzed using computer-assisted image analysis software (Soft Imaging System Corporation, Lakewood, Colo.). Results were expressed as the percentage of dopaminergic cell loss in the SNpc.

[2] = system: astrocytes; test: LPS-induced nitrite production (Griess) in primary astrocyte cultures; type: cell-based, rat
Protocol: Example 8: DMT, DET, DPT and 5-MeO-DMT administration in vitro prevents inflammation in rat primary glial cells. […] Rat primary glial cell cultures were prepared from the cerebral cortex of 3 day old rats which were dissected, dissociated, and incubated with 0.25% trypsin/EDTA at 37° C. for 1 h. After centrifugation, the pellet was washed three times with HBSS (Gibco) and the cells were plated in poly-D-lysine (20 μg/mL) pretreated flasks (75 cm2). After 7-10 days, the flasks were agitated in an orbital shaker for 4 h at 230 rpm at 37° C. and non-adherent microglial cells were isolated and plated. Then Dulbecco's Modified Eagle's Medium (DMEM) was added to the flasks, which were agitated in a horizontal shaker at 260 rpm at 37° C. After overnight agitation, the supernatant (oligodendrocytes and some remaining microglial cells) was removed, and astrocytes (adherent cells) were collected. The purity of the cultures was >95%, as determined by immunofluorescence analysis using an anti-glial fibrillary acidic protein (GFAP; clone G-A-5; Sigma-Aldrich) antibody to identify astrocytes, and an anti-Iba1 (Wako Catalog No. 019-19741) antibody to identify microglial cells. On attaining semiconfluence, cells were administered each of the test tryptamines at 1 μM or with the combination test tryptamine+Ritanserin (Rit at 1 μM) 2 h before exposure to lipopolysaccharide (LPS, 10 μg/mL; Sigma-Aldrich) and kept in the presence of each drug or drug combination for 24 h. In combination studies, Rit was added to medium 1h before administration of the corresponding tryptamine. Vehicle-treated cultures were used as a control. After the 24 h drug exposure period, cultures were tested to assess nitrite release. To quantify nitrite concentrations in culture medium, supernatants of glial cultures were collected and mixed with an equal volume of Griess reagent (Sigma-Aldrich). Samples were then incubated at room temperature for 15 min and absorbance was measured at 540 nm on a microplate reader. Results are expressed as the mean±SEM of six replications in three different experiments

[3] = system: subgranular zone of the hippocampus; test: Long-term (21 days) in vivo neurogenesis in the subgranular zone of the hippocampus (BrdU/NeuN, BrdU/DCX); parameters: species or system C57BL/6 mice
Protocol: Adult male C57BL/6 mice (obtained from Charles River Labs, Barcelona, Spain) were injected every other day for 3 weeks with DMT (0.1 μg/animal), alone or in combination with the selective Sigma-1 BD1063 antagonist (BD, 0.2 μg/animal, Sigma, Catalog number SML0276), the mixed 5-HT2A/1A receptor antagonist methiothepin (Met, 0.2 μg/animal, Sigma, Catalog number M149), or the selective 5-HT1A receptor antagonist WAY100635 (WAY, 0.2 μg/animal, ABCAM catalog number ab120550). On day 1 of treatment, animals were intraperitoneally injected with the proliferation marker 5-bromo-2-deoxyuridine (BrdU, 50 mg/kg, Sigma, Catalog number B5002) and sacrificed on day 21. Following anesthesia, the animals were perfused transcardially with 4% paraformaldehyde, and the brains obtained and post-fixed in the same solution at 4-8° C. overnight. They were subsequently cryoprotected, frozen, and finally cut into 30 μm coronal sections in a cryostat. Free-floating sections were immunostained using immunofluorescence analysis. For BrdU detection, samples were first incubated with 2 M HCl for 30 minutes at 37° C. before blocking 1 hour in PBS containing 5% normal serum, 0.1 M lysine, and 0.1% Triton X-100. Sections were then incubated with anti-BrdU mouse monoclonal antibody (DAKO, Barcelona, Spain, Catalog number M0744) combined with a neuronal marker, anti-neuN rabbit antibody (Abcam, Cambridge, UK. Catalog number ABN78) or an anti-double courtin (DCX) goat antibody (Santa Cruz Biotech. USA) at 4° C. overnight, washed three times and incubated with Alexa Fluor-488 goat anti-mouse and Alexa 647-goat anti-rabbit or -horse anti-goat secondary antibodies (Molecular Probes, Madrid, Spain), respectively, for 1 hour at room temperature. After rinses, sections were mounted with Vectashield.

CN(C)CCc1c[nH]c2ccccc12 [DMT, N,N-dimethyltryptamine]
average percentage of dopaminergic cell loss in the SNpc [1]: 10%
decrease in dopaminergic neurons and increase in activated astroglial and microglial cells (images) [1]: virtually absent
reduction of LPS-induced nitrite in the presence of Rit ([2]; Rit 1 μM 1 h before tryptamine 1 μM, then LPS 10 μg/mL 24 h): maintained
LPS-induced nitrite increases ([2]; tryptamine 1 μM before LPS 10 μg/mL, 24 h, vs LPS alone): significantly reduced
double BrdU-NeuN stained cells (new neurons) ([3]; DMT 0.1 μg/animal every other day for 3 weeks, sacrificed day 21): increase
number of newly generated neurons as compared to basal ([3]; FIG. 6 legend, printed as after 5 days of DMT administration): doubled
